Measurements taken from US20260256792A1, “TREATMENT OF CHRONIC SPONTANEOUS URTICARIA BY ADMINISTERING (R)-2-[3-[4-AMINO-3-(2-FLUORO-4-PHENOXY-PHENYL)PYRAZOLO[3,4-D]PYRIMIDIN-1-YL]PIPERIDINE-1-CARBONYL]-4-METHYL-4-[4-(OXETAN-3-YL)PIPERAZIN-1-YL]PENT-2-ENENITRILE” (priority 2023, published 2026).

System: moderate-to-severe chronic spontaneous urticaria (CSU)
Assay: Phase 2 CSU study: urticaria activity score over 7 days (UAS7)
Assay type: in vivo, human
Details: Omalizumab-naïve
Source text: The study comprises a 12 week, randomized, double-blind, placebo-controlled, multi-center, dose-ranging efficacy and safety phase, followed by a 40 week open label extension (OLE) phase (see FIG. 1). The study consists of three phases and an optional OLE phase. […] Clinically, CSU is characterized by the spontaneous and recurrent appearance of pruritic hives. The proposed primary endpoints were the UAS7 at Week 12 in EU and EU reference countries and the ISS7 in the US. Regardless of where a participant was from, all assessments were the same. The UAS7 score is a composite score containing both the HSS7 and the ISS7. This allowed a global assessment of the two key components of urticaria: hives and itch. […] The UAS is a validated PRO measure. […] The daily UAS scores range from 0 to 6 point/day. […] Patients were to complete the UAS using the e-diary. […] The following secondary endpoints were to be analyzed using the same approach as for the primary endpoint: • Change from baseline in UAS7 at Week 4 • Change from baseline in UAS7 at Week 12 (for US and US reference countries) • Change from baseline in ISS7 at Week 12 (except US and US reference countries) • Change from baseline in HSS7 at Week 12 The following responder secondary endpoints were to be analyzed using the Cochran-Mantel-Haenszel test adjusted by region: • Proportion of participants with UAS7<6 at Week 12 • Proportion of participants with UAS7=0 at Week 12 Participants who received selected prohibited medications and/or rescue medications were to be considered as non-responders for time points after the medication usage. For other participants, all available data including those collected during the off-treatment period were to be used to determine the responder/non-responder status. Missing data were to be considered as non-responders.

CC(C)(C=C(C#N)C(=O)N1CCC[C@@H](n2nc(-c3ccc(Oc4ccccc4)cc3F)c3c(N)ncnc32)C1)N1CCN(C2COC2)CC1 [rilzabrutinib, (R)-2-[3-[4-amino-3-(2-fluoro-4-phenoxy-phenyl)pyrazolo[3,4-d]pyrimidin-1-yl]piperidine-1-carbonyl]-4-methyl-4-[4-(oxetan-3-yl)piperazin-1-yl]pent-2-enenitrile]
Imputed non-responder n (%), UAS7 ≤6 (400 mg QPM, Week 8): 7 (18.9) n (%) | Non-responder n (%), UAS7 = 0 (400 mg QPM, Week 8): 36 (97.3) n (%) | Non-responder n (%), UAS7 ≤6 (400 mg QPM, Week 8): 34 (91.9) n (%) | OR for rilzabrutinib vs. placebo, UAS7 = 0 (400 mg QPM, Week 8): 0.477 | RRD (%) for rilzabrutinib vs. placebo, UAS7 = 0 (400 mg QPM, Week 8): −2.7 % | RRD (%) for rilzabrutinib vs. placebo, UAS7 ≤6 (400 mg QPM, Week 8): −8.4% | Responder n (%), UAS7 = 0 (400 mg QPM, Week 8): 1 (2.7) n (%) | Responder n (%), UAS7 ≤6 (400 mg QPM, Week 8): 3 (8.1) n (%) | Imputed non-responder n (%), UAS7 = 0 (400 mg QPM, Week 9): 6 (16.2) n (%) | Imputed non-responder n (%), UAS7 ≤6 (400 mg QPM, Week 9): 6 (16.2) n (%) | Non-responder n (%), UAS7 = 0 (400 mg QPM, Week 9): 36 (97.3) n (%) | Non-responder n (%), UAS7 ≤6 (400 mg QPM, Week 9): 34 (91.9) n (%) | OR for rilzabrutinib vs. placebo, UAS7 = 0 (400 mg QPM, Week 9): 0.305 | OR for rilzabrutinib vs. placebo, UAS7 ≤6 (400 mg QPM, Week 9): 0.715 | RRD (%) for rilzabrutinib vs. placebo, UAS7 = 0 (400 mg QPM, Week 9): −5.6 % | RRD (%) for rilzabrutinib vs. placebo, UAS7 ≤6 (400 mg QPM, Week 9): −3.0% | Responder n (%), UAS7 = 0 (400 mg QPM, Week 9): 1 (2.7) n (%) | Responder n (%), UAS7 ≤6 (400 mg QPM, Week 9): 3 (8.1) n (%) | Imputed non-responder n (%), UAS7 = 0 (400 mg QPM, Week 10): 6 (16.2) n (%) | Imputed non-responder n (%), UAS7 ≤6 (400 mg QPM, Week 10): 6 (16.2) n (%) | Non-responder n (%), UAS7 = 0 (400 mg QPM, Week 10): 36 (97.3) n (%) | Non-responder n (%), UAS7 ≤6 (400 mg QPM, Week 10): 35 (94.6) n (%) | OR for rilzabrutinib vs. placebo, UAS7 = 0 (400 mg QPM, Week 10): 0.219 | OR for rilzabrutinib vs. placebo, UAS7 ≤6 (400 mg QPM, Week 10): 0.357 | RRD (%) for rilzabrutinib vs. placebo, UAS7 = 0 (400 mg QPM, Week 10): −8.7 % | RRD (%) for rilzabrutinib vs. placebo, UAS7 ≤6 (400 mg QPM, Week 10): −8.6% | Responder n (%), UAS7 = 0 (400 mg QPM, Week 10): 1 (2.7) n (%) | Responder n (%), UAS7 ≤6 (400 mg QPM, Week 10): 2 (5.4) n (%) | Imputed non-responder n (%), UAS7 = 0 (400 mg QPM, Week 11): 7 (18.9) n (%) | Imputed non-responder n (%), UAS7 ≤6 (400 mg QPM, Week 11): 7 (18.9) n (%) | Non-responder n (%), UAS7 = 0 (400 mg QPM, Week 11): 35 (94.6) n (%) | Non-responder n (%), UAS7 ≤6 (400 mg QPM, Week 11): 34 (91.9) n (%) | OR for rilzabrutinib vs. placebo, UAS7 = 0 (400 mg QPM, Week 11): 0.986 | OR for rilzabrutinib vs. placebo, UAS7 ≤6 (400 mg QPM, Week 11): 0.456 | RRD (%) for rilzabrutinib vs. placebo, UAS7 ≤6 (400 mg QPM, Week 11): −8.5% | Responder n (%), UAS7 = 0 (400 mg QPM, Week 11): 2 (5.4) n (%) | Responder n (%), UAS7 ≤6 (400 mg QPM, Week 11): 3 (8.1) n (%) | Imputed non-responder n (%), UAS7 = 0 (400 mg QPM, Week 12): 10 (27.0) n (%) | Imputed non-responder n (%), UAS7 ≤6 (400 mg QPM, Week 12): 10 (27.0) n (%) | Non-responder n (%), UAS7 = 0 (400 mg QPM, Week 12): 36 (97.3) n (%) | Non-responder n (%), UAS7 ≤6 (400 mg QPM, Week 12): 35 (94.6) n (%) | OR for rilzabrutinib vs. placebo, UAS7 = 0 (400 mg QPM, Week 12): 0.219 | OR for rilzabrutinib vs. placebo, UAS7 ≤6 (400 mg QPM, Week 12): 0.438 | RRD (%) for rilzabrutinib vs. placebo, UAS7 = 0 (400 mg QPM, Week 12): −8.7 % | RRD (%) for rilzabrutinib vs. placebo, UAS7 ≤6 (400 mg QPM, Week 12): −6.1% | Responder n (%), UAS7 = 0 (400 mg QPM, Week 12): 1 (2.7) n (%) | Responder n (%), UAS7 ≤6 (400 mg QPM, Week 12): 2 (5.4) n (%) | Imputed non-responder n (%), UAS7 = 0 (400 mg TID, Week 1): 0 n (%) | Imputed non-responder n (%), UAS7 ≤6 (400 mg TID, Week 1): 0 n (%) | Non-responder n (%), UAS7 = 0 (400 mg TID, Week 1): 34 (97.1) n (%) | Non-responder n (%), UAS7 ≤6 (400 mg TID, Week 1): 27 (77.1) n (%) | OR for rilzabrutinib vs. placebo, UAS7 ≤6 (400 mg TID, Week 1): 4.809 | RRD (%) for rilzabrutinib vs. placebo, UAS7 = 0 (400 mg TID, Week 1): 0.2 % | RRD (%) for rilzabrutinib vs. placebo, UAS7 ≤6 (400 mg TID, Week 1): 15.9 % | Responder n (%), UAS7 = 0 (400 mg TID, Week 1): 1 (2.9) n (%) | Responder n (%), UAS7 ≤6 (400 mg TID, Week 1): 8 (22.9) n (%) | Imputed non-responder n (%), UAS7 = 0 (400 mg TID, Week 2): 0 n (%) | Imputed non-responder n (%), UAS7 ≤6 (400 mg TID, Week 2): 0 n (%) | Non-responder n (%), UAS7 = 0 (400 mg TID, Week 2): 31 (88.6) n (%) | Non-responder n (%), UAS7 ≤6 (400 mg TID, Week 2): 27 (77.1) n (%) | OR for rilzabrutinib vs. placebo, UAS7 = 0 (400 mg TID, Week 2): 4.736 | OR for rilzabrutinib vs. placebo, UAS7 ≤6 (400 mg TID, Week 2): 4.455 | RRD (%) for rilzabrutinib vs. placebo, UAS7 = 0 (400 mg TID, Week 2): 8.3 % | RRD (%) for rilzabrutinib vs. placebo, UAS7 ≤6 (400 mg TID, Week 2): 15.3 % | Responder n (%), UAS7 = 0 (400 mg TID, Week 2): 4 (11.4) n (%) | Responder n (%), UAS7 ≤6 (400 mg TID, Week 2): 8 (22.9) n (%)
